Assay results as given in patent EP1144368B1, “ACETYLENIC ALPHA-AMINO ACID-BASED SULFONAMIDE HYDROXAMIC ACID TACE INHIBITORS” (priority 1999, dated 2000).
Structures can show the parent of a compound that is named as a salt.

The molecules below were run on THP-1 cells (assay: THP-1 Soluble Protein Assay (LPS-stimulated; ELISA of TNF-a, TNF-R p75/80, TNF-R p55/60, IL-8)). Conditions: Homo sapiens, THP-1, 3 µM; read-out: THP % Inhibition @ 3µM.
Assay type: cell-based, human

Row | SMILES | inhibition at 3 µM [%]
1 | CC#CCOc1ccc(S(=O)(=O)N2C=CSC(C)(C)[C@@H]2C(=O)NO)cc1 [Example 379, (3S)-4-{[4-(2-Butynyloxy)phenyl]sulfonyl}-N-hydroxy-2,2-dimethyl-3,4-dihydro-2H-1,4-thiazine-3-carboxamide] | 85
2 | CC#CCOc1ccc(S(=O)(=O)N2CCNCCC2C(=O)NO)cc1 (centres unmarked) [Example 292, 4-{[4-(2-Butynyloxy)phenyl]sulfonyl}-N-hydroxy-1,4-diazepane-5-carboxamide] | 83
3 | CC#CCOc1ccc(S(=O)(=O)N2C[C@H](CC(=O)NO)SC(C)(C)[C@@H]2C(=O)NO)cc1 [Example 279, (3S,6S)-4-{[4-(2-Butynyloxy)phenyl]sulfonyl}-N-hydroxy-6-[2-(hydroxyamino)-2-oxoethyl]-2,2-dimethyl-3-thiomorpholinecarboxamide] | 87

Same assay, conditions: Homo sapiens, THP-1, read-out: THP % inhibition @ 3 µM

Row | SMILES | inhibition at 3 µM [%]
4 | CC1(C)SCCN(S(=O)(=O)c2ccc(OCC#CCO)cc2)[C@H]1C(=O)NO [Example 260, (3S)-N-Hydroxy-4-({4-[(4-hydroxy-2-butynyl)oxy]phenyl}sulfonyl)-2,2-dimethyl-3-thiomorpholine carboxamide] | 95

Same assay, conditions: Homo sapiens, THP-1, read-out: THP % inhibition @ 3 µM, 3 µM

Row | SMILES | inhibition at 3 µM [%]
5 | CC#CCOc1ccc(S(=O)(=O)N(C)C(C(=O)NO)c2ccc(OCCN(C)C)cc2)cc1 (centres unmarked) [Example 182, 2-[{[4-(2-Butynyloxy)phenyl]sulfonyl}(methyl)amino]-2-{4-[2-(dimethylamino)ethoxy]phenyl}-N-hydroxyacetamide] | 92
6 | CC#CCOc1ccc(S(=O)(=O)N(CC2CC2)C(C(=O)NO)C(C)C)cc1 (centres unmarked) [Example 112, 2-[(4-But-2-ynyloxy-benzenesulfonyl)-cyclopropylmethyl-amino]-N-hydroxy-3-methyl-butyramide] | 50
7 | CC#CCOc1ccc(S(=O)(=O)N(C)C(C(=O)NO)c2ccc(OCCCNC(=O)Nc3ccccc3)cc2)cc1 (centres unmarked) [Example 198, 2-(4-{3-[(Anilinocarbonyl)amino]propoxy}phenyl)-2-[{[4-(2-butynyloxy)phenyl]sulfonyl}(methyl)amino]-N-hydroxyacetamide] | 92
8 | CC#CCOc1ccc(S(=O)(=O)N(C)C(C(=O)NO)c2ccc(OCCCNC(C)=O)cc2)cc1 (centres unmarked) [Example 194, 2-{4-[3-(Acetylamino)propoxy]phenyl}-2-[{[4-(2-butynyloxy)phenyl]sulfonyl}(methyl)amino]-N-hydroxyacetamide] | 94
9 | CC#CCOc1ccc(S(=O)(=O)N(C)C(C(=O)NO)c2ccc(OCCN3CCCC3)cc2)cc1 (centres unmarked) [Example 183, 2-[{[4-(2-Butynyloxy)phenyl]sulfonyl}(methyl)amino]-N-hydroxy-2-{4-[2-(1-pyrrolidinyl)ethoxy]phenyl}acetamide] | 93
10 | CC#CCOc1ccc(S(=O)(=O)N2CCN(C(=O)N(CC)CC)CC2C(=O)NO)cc1 (centres unmarked) [Example 216, 4-(4-But-2-ynyloxy-benzenesulfonyl)-piperazine-1,3-dicarboxylic acid 1-diethylamide 3-hydroxyamide] | 59
11 | CC1(C)SCCN(S(=O)(=O)c2ccc(OCC#CCF)cc2)[C@H]1C(=O)NO [Example 264, (3S)-4-({4-[(4-Fluoro-2-butynyl)oxy]phenyl}sulfonyl)-N-hydroxy-2,2-dimethyl-3-thiomorpholine carboxamide] | 94
12 | CC#CCOc1ccc(S(=O)(=O)N(Cc2cccnc2)C2(C(=O)NO)CCCCC2)cc1 [Example 137, 1-[{[4-(2-Butynyloxy)phenyl]sulfonyl}(3-pyridinylmethyl)amino] N-hydroxycyclohexanecarboxamide] | 0
13 | CC#CCOc1ccc(S(=O)(=O)N(CCCN2CCN(C)CC2)C(C(=O)NO)C(C)C)cc1 (centres unmarked) [Example 120, 2-{{[4-(2-Butynyloxy)phenyl]sulfonyl}[3-(4-methyl-1-piperazinyl)propyl]amino}-N-hydroxy-3-methylbutanamide hydrochloride] | 61
14 | CC#CCOc1ccc(S(=O)(=O)N2CCN(C(=O)OCc3ccccc3)CC2C(=O)NO)cc1 (centres unmarked) [Example 219, Benzyl 4-{[4-(2-butynyloxy)phenyl]sulfonyl}-3-[(hydroxyamino)carbonyl]-1-piperazinecarboxylate] | 87
15 | CC#CCOc1ccc(S(=O)(=O)N[C@@H](C(=O)NO)c2ccc(OCCN)cc2)cc1 [Example 200, (2R)-2-[4-(2-Aminoethoxy)phenyl]-2-({[4-(2-butynyloxy)phenyl]sulfonyl}amino)-N-hydroxyethanamide] | 78
16 | CC#CCOc1ccc(S(=O)(=O)N(C)C(C(=O)NO)c2ccc(OCCN)cc2)cc1 (centres unmarked) [Example 181, 2-[4-(2-Aminoethoxy)phenyl]-2-[{[4-(2-butynyloxy)phenyl]sulfonyl}(methyl)amino]-N-hydroxyacetamide] | 92
17 | CC#CCOc1ccc(S(=O)(=O)N(CC(C)C)C(C(=O)NO)C(C)C)cc1 (centres unmarked) [Example 113, 2-[(4-But-2-ynyloxy-benzenesulfonyl)-isobutyl-amino]-N-hydroxy-3-methyl-butyramide] | 0
18 | CC#CCOc1ccc(S(=O)(=O)N(C)C(C(=O)NO)C(C)(C)SCCn2ccnc2)cc1 (centres unmarked) [Example 144, 2-({[4-(2-Butynyloxy)phenyl]sulfonyl)(methyl)amino]-N-hydroxy-3-methyl-3-{[2-(1H-imidazol-1-yl)ethyl]sulfanyl}butanamide] | 89
19 | CC1(C)SCCN(S(=O)(=O)c2ccc(OCC#CCCN)cc2)C1C(=O)NO (centres unmarked) [Example 246, 4-({4-[(5-Amino-2-pentynyl)oxy]phenyl}sulfonyl)-N-hydroxy-2,2-dimethyl-3-thiomorpholine carboxamide] | 4
20 | CC#CCOc1ccc(S(=O)(=O)NC(C(=O)NO)c2ccc(OCCN(C)C)cc2)cc1 (centres unmarked) [Example 207, 2-({[4-(2-Butynyloxy)phenyl]sulfonyl}amino){4-[2-(dimethylamino)ethoxy]phenyl}-N-hydroxyacetamide] | 51

Row | SMILES | inhibition at 3 µM [%]
21 | CC1(C)SCCN(S(=O)(=O)c2ccc(OCC#CCCCN)cc2)[C@H]1C(=O)NO [Example 251, (3S)-4-({4-[(6-Amino-2-hexynyl)oxy]phenyl}sulfonyl)-N-hydroxy-2,2-dimethyl-3-thiomorpholine carboxamide] | 22
22 | CC#CCOc1ccc(S(=O)(=O)N(C)C(C(=O)NO)c2ccc(OC)cc2)cc1 (centres unmarked) [Example 178, 2-[{[4-(2-Butynyloxy)phenyl]sulfonyl}(methyl)amino]-N-hydroxy-2-(4-methoxyphenyl)acetamide] | 91
23 | CC#CCOc1ccc(S(=O)(=O)N(Cc2cccnc2)C(CSCc2ccccc2)C(=O)NO)cc1 (centres unmarked) [Example 157, 3-(Benzylthio)-2-[[[4-(2-butynyloxy)phenyl]sulfonyl]pyridin-3-ylmethylamino]-N-hydroxypropanamide] | 79
24 | CC#CCOc1ccc(S(=O)(=O)N(CCCc2ccccc2)C(C(=O)NO)C(C)C)cc1 (centres unmarked) [Example 111, 2-[(4-But-2-ynyloxy-benzenesulfonyl)-(3-phenyl-propyl)-amino]-N-hydroxy-3-methyl-butyramide] | 35
25 | CC#CCOc1ccc(S(=O)(=O)NC(C(=O)NO)c2ccc(O)cc2)cc1 (centres unmarked) [Example 176, 2-({[4-(2-Butynyloxy)phenyl]sulfonyl}amino)-N-hydroxy-2-(4-hydroxyphenyl)acetamide] | 89
26 | CC1(C)SCCN(S(=O)(=O)c2ccc(OCC#Cc3ccccc3)cc2)[C@H]1C(=O)NO [Example 254, (3S)-N-Hydroxy-2,2-dimethyl-4-({4-[(3-phenyl-2-propynyl)oxy]phenyl}sulfonyl)-3-thiomorpholine carboxamide] | 77
27 | CC#CCOc1ccc(S(=O)(=O)N(C)CC(=O)NO)cn1 [Example 131, 2-[(6-But-2-ynyloxy-pyridine-3-sulfonyl)-methyl-amino]-N-hydroxy-acetamide] | 18
28 | CC#CCOc1ccc(S(=O)(=O)N2CCN(C(=O)N3CCCC3)CC2C(=O)NO)cc1 (centres unmarked) [Example 217, 1-(4-But-2-ynyloxy-benzenesulfonyl)-4-(pyrrolidine-1-carbonyl)-piperazine-2-carboxylic acid hydroxyamide] | 73
29 | CC#CCOc1ccc(S(=O)(=O)N[C@@H](C(=O)NO)c2ccc(OCCNC(C)=O)cc2)cc1 [Example 201, (2R)-2-{4-[2-(Acetylamino)ethoxy]phenyl}-2-({[4-(2-butynyloxy)phenyl]sulfonyl}amino)-N-hydroxyethanamide] | 77
30 | CC1(C)SCCN(S(=O)(=O)c2ccc(OCC#CCCO)cc2)C1C(=O)NO (centres unmarked) [Example 244, N-Hydroxy-4-({4-[(5-hydroxy-2-pentynyl)oxy]phenyl}sulfonyl)-2,2-dimethyl-3-thiomorpholine carboxamide] | 57
31 | CC#CCOc1ccc(S(=O)(=O)N2CCS(=O)(=O)C(C)(C)[C@@H]2C(=O)NO)cc1 [Example 257, (3S)-4-{[4-(2-Butynyloxy)phenyl]sulfonyl}-N-hydroxy-2,2-dimethyl-3-thiomorpholine carboxamide 1,1-dioxide] | 91
32 | CC(C)(C)OC(=O)NCC#CCOc1ccc(S(=O)(=O)N2CCSC(C)(C)C2C(=O)NO)cc1 (centres unmarked) [Example 266, tert-Butyl 4-[4-({3-[(hydroxyamino)carbonyl]-2,2-dimethyl-4-thiomorpholinyl}sulfonyl)phenoxy]-2-butynylcarbamate] | 79
33 | CC#CCOc1ccc(S(=O)(=O)N(CC#CCN2CCN(C)CC2)C(C)C(=O)NO)cc1 (centres unmarked) [Example 135, 2-{[[4-(2-butynyloxy)phenyl]sulfonyl][4-(4-methyl-1-piperazinyl)-2-butynylamino]}-N-hydroxypropanamide] | 76
34 | CC#CCOc1ccc(S(=O)(=O)N2CCN(C(=O)N(C)c3ccccc3)CC2C(=O)NO)cc1 (centres unmarked) [Example 220, 4-(4-But-2-ynyloxy-benzenesulfonyl)-piperazine-1,3-dicarboxylic acid 3-hydroxyamide 1-(methyl-phenyl-amide)] | 60
35 | CC#CCOc1ccc(S(=O)(=O)N(CC#CCN2CCN(C)CC2)C(C(=O)NO)C(C)C)cc1 (centres unmarked) [Example 125, 2-{{[4-(2-Butynyloxy)phenyl]sulfonyl}[4-(4-methyl-1-piperazinyl)-2-butynyl]amino}-N-hydroxy-3-methylbutanamide] | 72
